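Each compound was tested at five concentrations against cells in 96-well plates for 48 hours. The concentration for 50% growth inhibition is given as GI50.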 Calls of active or inactive are those of the source. No stated cut-off is given here; in the data, active = GI50 up to about 1.1 µM and inactive = higher.
What was measured:
Test in all cases: inhibition of tumour cell growth, NCI panel, 48 h
[1] = test system: A549
[2] = test system: ACHN
[3] = test system: BT-549
[4] = test system: CAKI-1
[5] = test system: DU-145
[6] = test system: HCC 2998
[7] = test system: HCT-116
[8] = test system: LOX IMVI
[9] = test system: MDA-MB-435
[10] = test system: Malme-3M
[11] = test system: NCI-H522
[12] = test system: NCI/ADR-RES
[13] = test system: SK-OV-3
[14] = test system: SN12C
[15] = test system: SNB-19
[16] = test system: SR
[17] = test system: SW-620
[18] = test system: U-251
[19] = test system: UACC-257

Compound: COc1cc(-c2[o+]c3cc(O)cc(O)c3cc2O)cc(O)c1O
- GI50 [1]: > 100 µM (inactive)
- GI50 [2]: > 100 µM (inactive)
- GI50 [3]: > 100 µM (inactive)
- GI50 [4]: > 100 µM (inactive)
- GI50 [5]: > 100 µM (inactive)
- GI50 [6]: 35 µM (inactive)
- GI50 [7]: > 100 µM (inactive)
- GI50 [8]: 55.8 µM (inactive)
- GI50 [9]: 19.4 µM (inactive)
- GI50 [10]: > 100 µM (inactive)
- GI50 [11]: 66.5 µM (inactive)
- GI50 [12]: > 100 µM (inactive)
- GI50 [13]: > 100 µM (inactive)
- GI50 [14]: > 100 µM (inactive)
- GI50 [15]: > 100 µM (inactive)
- GI50 [16]: 96.6 µM (inactive)
- GI50 [17]: 30.6 µM (inactive)
- GI50 [18]: > 100 µM (inactive)
- GI50 [19]: > 100 µM (inactive)

Compound: O=P(c1ccccc1)(c1ccccc1)N1O[C@@H](c2ccccc2)C=C[C@H]1c1ccccc1
- GI50 [1]: 8.81 µM (inactive)
- GI50 [2]: 10.2 µM (inactive)
- GI50 [3]: 17.5 µM (inactive)
- GI50 [4]: 5.66 µM (inactive)
- GI50 [5]: 13 µM (inactive)
- GI50 [6]: 13.7 µM (inactive)
- GI50 [7]: 4.11 µM (inactive)
- GI50 [8]: 7.19 µM (inactive)
- GI50 [9]: 4.2 µM (inactive)
- GI50 [10]: 14.5 µM (inactive)
- GI50 [11]: 9.33 µM (inactive)
- GI50 [12]: 7.13 µM (inactive)
- GI50 [13]: 15.1 µM (inactive)
- GI50 [14]: 4.36 µM (inactive)
- GI50 [15]: 14.8 µM (inactive)
- GI50 [16]: 4.46 µM (inactive)
- GI50 [17]: 12.9 µM (inactive)
- GI50 [18]: 4.37 µM (inactive)
- GI50 [19]: 11.9 µM (inactive)

Compound: CCCCC(=O)OC[n+]1ccc(-c2c(COC(=O)NC(C)C)c(COC(=O)NC(C)C)c3n2CCC3)cc1
- GI50 [1]: > 100 µM (inactive)
- GI50 [2]: 34.6 µM (inactive)
- GI50 [3]: > 100 µM (inactive)
- GI50 [4]: 24.9 µM (inactive)
- GI50 [5]: > 70.5 µM (inactive)
- GI50 [6]: > 100 µM (inactive)
- GI50 [7]: > 94.8 µM (inactive)
- GI50 [8]: 47.9 µM (inactive)
- GI50 [9]: > 100 µM (inactive)
- GI50 [10]: > 100 µM (inactive)
- GI50 [11]: 30.5 µM (inactive)
- GI50 [12]: > 100 µM (inactive)
- GI50 [13]: > 100 µM (inactive)
- GI50 [14]: 40.3 µM (inactive)
- GI50 [15]: > 100 µM (inactive)
- GI50 [16]: 10 µM (inactive)
- GI50 [17]: > 76.2 µM (inactive)
- GI50 [18]: > 71.3 µM (inactive)
- GI50 [19]: > 100 µM (inactive)

Compound: CCN(CC)CCCn1c(=O)c2cccnc2n2c3c(=O)n(C)c(=O)n(C)c3nc12
- GI50 [1]: > 100 µM (inactive)
- GI50 [2]: > 100 µM (inactive)
- GI50 [3]: > 100 µM (inactive)
- GI50 [4]: > 100 µM (inactive)
- GI50 [5]: > 100 µM (inactive)
- GI50 [6]: > 100 µM (inactive)
- GI50 [7]: > 100 µM (inactive)
- GI50 [8]: > 100 µM (inactive)
- GI50 [9]: > 100 µM (inactive)
- GI50 [10]: > 100 µM (inactive)
- GI50 [11]: > 100 µM (inactive)
- GI50 [12]: > 100 µM (inactive)
- GI50 [13]: > 100 µM (inactive)
- GI50 [14]: > 100 µM (inactive)
- GI50 [15]: > 100 µM (inactive)
- GI50 [16]: > 100 µM (inactive)
- GI50 [17]: > 100 µM (inactive)
- GI50 [18]: > 100 µM (inactive)
- GI50 [19]: > 100 µM (inactive)

Compound: CCCCCCNCCCNc1c2cc(OC)ccc2nc2cccc([N+](=O)[O-])c12
- GI50 [1]: 0.0578 µM (active)
- GI50 [2]: 0.14 µM (active)
- GI50 [3]: 0.809 µM (active)
- GI50 [4]: 0.211 µM (active)
- GI50 [5]: 0.0413 µM (active)
- GI50 [6]: 0.0203 µM (active)
- GI50 [7]: 0.036 µM (active)
- GI50 [8]: 0.134 µM (active)
- GI50 [9]: 0.143 µM (active)
- GI50 [10]: 0.0304 µM (active)
- GI50 [11]: < 0.0195 µM (active)
- GI50 [12]: 0.658 µM (active)
- GI50 [13]: 0.627 µM (active)
- GI50 [14]: 0.0787 µM (active)
- GI50 [15]: 0.369 µM (active)
- GI50 [16]: 0.0173 µM (active)
- GI50 [17]: < 0.0233 µM (active)
- GI50 [18]: 0.131 µM (active)
- GI50 [19]: 0.366 µM (active)

Compound: COc1cc(C2SCC(=O)N2c2ccccc2Cl)cc(OC)c1OC (stereo unspecified)
- GI50 [1]: > 100 µM (inactive)
- GI50 [2]: > 100 µM (inactive)
- GI50 [3]: 54 µM (inactive)
- GI50 [4]: > 100 µM (inactive)
- GI50 [5]: > 100 µM (inactive)
- GI50 [6]: > 100 µM (inactive)
- GI50 [7]: > 100 µM (inactive)
- GI50 [8]: > 100 µM (inactive)
- GI50 [9]: 23.7 µM (inactive)
- GI50 [11]: 65.8 µM (inactive)
- GI50 [12]: 88.5 µM (inactive)
- GI50 [13]: > 100 µM (inactive)
- GI50 [14]: > 100 µM (inactive)
- GI50 [15]: 79.3 µM (inactive)
- GI50 [16]: 43.1 µM (inactive)
- GI50 [17]: > 100 µM (inactive)
- GI50 [18]: > 100 µM (inactive)
- GI50 [19]: > 100 µM (inactive)

Compound: O=C(/C=C/c1ccccc1Br)c1ccccc1
- GI50 [1]: 12 µM (inactive)
- GI50 [2]: 1.8 µM (inactive)
- GI50 [3]: 13.6 µM (inactive)
- GI50 [4]: 2.96 µM (inactive)
- GI50 [5]: 8.07 µM (inactive)
- GI50 [6]: 2.89 µM (inactive)
- GI50 [7]: 1.89 µM (inactive)
- GI50 [8]: 1.36 µM (inactive)
- GI50 [9]: 2.46 µM (inactive)
- GI50 [11]: 2.65 µM (inactive)
- GI50 [12]: 6.08 µM (inactive)
- GI50 [13]: 16.9 µM (inactive)
- GI50 [14]: 9.84 µM (inactive)
- GI50 [15]: 10.9 µM (inactive)
- GI50 [16]: 2.18 µM (inactive)
- GI50 [17]: 1.58 µM (inactive)
- GI50 [18]: 1.56 µM (inactive)
- GI50 [19]: 9.68 µM (inactive)

— ChEMBL document CHEMBL1201862, “PubChem BioAssay data set” (2004)
